Each block holds one molecule with its values, some of them ahead of it.
Key:
[1] = system: FTC_1_EAB, E-AB sensor (DNA, aptamer) CTGAGTCGTTGGCAAGGTATTGAGAGAG; experiment: electrochemical aptamer-based sensor (square wave voltammetry); conditions: for binding: negligible signal 100 nM to 10 µM
[2] = system: FTC_1_Full (DNA, aptamer) GGAGGCTCTCGGGACGACGCTGAGTCGTTGGCAAGGTATTGAGAGAGTGTCGTCCCGATGCTGCAATCGTAA; experiment: ITC; conditions: Na+ (PBS), Mg2+ 2 mM, 25 °C, 20 µM aptamer in cell; for binding: 200 µM compound in syringe
[3] = system: FTC_1_EAB (FTC_1_5'trunc19_3'trunc25), unlabelled (DNA, aptamer) CTGAGTCGTTGGCAAGGTATTGAGAGAG; experiment: ITC; conditions: Na+ (PBS), Mg2+ 2 mM, 25 °C, 20 µM aptamer in cell; for binding: 200 µM compound in syringe
[4] = system: FTC_5_Full (DNA, aptamer) GGAGGCTCTCGGGACGACGGCAAGTCGTTGGTAAGGTATTAATCTGGTGTCGTCCCGATGCTGCAATCGTAA; experiment: ITC; conditions: Na+ (PBS), Mg2+ 2 mM, 25 °C, 20 µM aptamer in cell, 200 µM FTC in syringe
[5] = system: FTC_1_EAB_Scramble (DNA, other) GATATGGGAGAACGCATTGCGTGGTATG; experiment: not stated (ITC series, Figure S7)
[6] = system: FTC_2_Full (DNA, aptamer) GGAGGCTCTCGGGACGACCATGAGTCGTTGGTAAGGTATTAGGAAGCGGTCGTCCCGATGCTGCAATCGTAA; experiment: ITC; conditions: Na+ (PBS), Mg2+ 2 mM, 25 °C, 20 µM aptamer in cell, 200 µM FTC in syringe
[7] = system: FTC_1_Fluor (FTC_1_5'trunc3_3'trunc14) (DNA, aptamer) GGCTCTCGGGACGACGCTGAGTCGTTGGCAAGGTATTGAGAGAGTGTCGTCCCGA; experiment: fluorescence, quencher strand displacement; conditions: Na+ (PBS), Mg2+ about 1 mM; 50% human plasma; Q-Cap_1 (3'-BHQ2) displaced; 100 nM aptamer, 150 nM Q-Cap_1; apparent
[8] = molecular target: bovine serum albumin (BSA) (UniProt P02769 25-607); experiment: ITC; heat change at mole ratios <0.1; BSA as ligand; ITC: PBS + 2 mM MgCl2 (SELEX buffer pH 7.2); general ITC protocol 20 uM aptamer in cell, 200 uM target in syringe; temperature not given; conditions: protein: commercial; stem-loop, stem S1 13 bp
bovine serum albumin (BSA), sequence (P02769 25-607): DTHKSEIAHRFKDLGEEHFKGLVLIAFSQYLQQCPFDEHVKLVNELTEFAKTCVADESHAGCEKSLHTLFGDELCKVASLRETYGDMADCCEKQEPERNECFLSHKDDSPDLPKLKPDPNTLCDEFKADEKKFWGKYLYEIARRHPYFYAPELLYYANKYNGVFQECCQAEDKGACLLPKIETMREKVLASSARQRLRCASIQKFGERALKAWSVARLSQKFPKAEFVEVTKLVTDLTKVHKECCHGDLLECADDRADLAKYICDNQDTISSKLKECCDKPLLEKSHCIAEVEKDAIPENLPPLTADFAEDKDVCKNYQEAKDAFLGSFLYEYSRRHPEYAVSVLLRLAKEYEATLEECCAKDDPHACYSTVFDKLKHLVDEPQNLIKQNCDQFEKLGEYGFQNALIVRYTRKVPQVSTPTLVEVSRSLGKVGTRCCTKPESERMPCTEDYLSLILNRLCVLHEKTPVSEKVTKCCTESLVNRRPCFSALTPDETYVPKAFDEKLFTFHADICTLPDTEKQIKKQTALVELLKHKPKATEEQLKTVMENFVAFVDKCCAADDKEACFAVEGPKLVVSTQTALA

binding ([1]; binding above 10 µM, gain 50% lower than FTC): weak
Molecule: Nc1ccn([C@@H]2CS[C@H](CO)O2)c(=O)n1

binding [2]: no | binding [3]: no
Molecule: Nc1ccn([C@@H]2O[C@H](CO)[C@@H](O)[C@H]2O)c(=O)n1

Further lines, the molecule ahead of its results:

Molecule: Nc1cc[nH]c(=O)n1
binding [2]: no | binding [3]: no

Molecule: Nc1nc(=O)n([C@@H]2O[C@H](CO)[C@@H](O)[C@H]2O)cc1F
binding [2]: no | binding [3]: no

Molecule: Nc1nc(=O)n([C@@H]2CS[C@H](CO)O2)cc1F
binding [4]: yes | dissociation constant ([2]; 200 µM FTC in syringe): 150 ± 40 nM | binding [5]: no | binding [6]: yes | Kd ([3]; 200 µM FTC in syringe): 10.9 ± 0.3 µM | EC50 [7]: 3.536 ± 0.069 µM | EC50 ([1]; Na+ (PBS), phosphate-buffered saline, gold electrode, Hill coefficient 1, apparent): 10.4 ± 0.6 µM

Molecule: Nc1nc(=O)n([C@@H]2CS[C@H](COP(=O)(O)OP(=O)(O)OP(=O)(O)O)O2)cc1F
binding [2]: no | binding ([1]; minimal binding at saturation): weak

B1: FTC_1 (taken as FTC_1_Full) (structured_DNA)
DNA: GGAGGCTCTCGGGACGACGCTGAGTCGTTGGCAAGGTATTGAGAGAGTGTCGTCCCGATGCTGCAATCGTAA
binding result [8]: binds

— PMC12478587
